Values after ≈ are worked out from the molar mass of the structure shown.
Key:
Salmonella typhimurium = experiment: Antibacterial activity against Salmonella typhimurium ATCC 13311 assessed as growth inhibition after 24 hrs at 37 degC by iodonitrotetrazolium chloride staining based microdilution broth assay; assay type: functional, Salmonella enterica subsp. enterica serovar Typhimurium; settings: Salmonella enterica, ATCC 13311, 24 h
Enterobacter cloacae = experiment: Antibacterial activity against human isolate of Enterobacter cloacae assessed as growth inhibition after 24 hrs at 37 degC by iodonitrotetrazolium chloride staining based microdilution broth assay; assay type: functional
Staphylococcus aureus = experiment: Antibacterial activity against Staphylococcus aureus ATCC 6538 assessed as growth inhibition after 24 hrs at 37 degC by iodonitrotetrazolium chloride staining based microdilution broth assay; assay type: functional; settings: ATCC 6538, 24 h
Pseudomonas aeruginosa = experiment: Antibacterial activity against Pseudomonas aeruginosa ATCC 27853 assessed as growth inhibition after 24 hrs at 37 degC by iodonitrotetrazolium chloride staining based microdilution broth assay; assay type: functional; settings: ATCC 27853, 24 h
Escherichia coli = experiment: Antibacterial activity against Escherichia coli ATCC 35210 assessed as growth inhibition after 24 hrs at 37 degC by iodonitrotetrazolium chloride staining based microdilution broth assay; assay type: functional; settings: ATCC 35210, 24 h
Listeria monocytogenes = experiment: Antibacterial activity against Listeria monocytogenes NCTC 7973 assessed as growth inhibition after 24 hrs at 37 degC by iodonitrotetrazolium chloride staining based microdilution broth assay; assay type: functional; settings: NCTC 7973, 24 h
Micrococcus flavus = experiment: Antibacterial activity against Micrococcus flavus ATCC 10240 assessed as growth inhibition after 24 hrs at 37 degC by iodonitrotetrazolium chloride staining based microdilution broth assay; assay type: functional; settings: ATCC 10240, 24 h
Bacillus cereus = experiment: Antibacterial activity against clinical isolates of Bacillus cereus assessed as growth inhibition after 24 hrs at 37 degC by iodonitrotetrazolium chloride staining based microdilution broth assay; assay type: functional
Trichoderma viride = experiment: Antifungal activity against Trichoderma viride IAM 5061 assessed as growth inhibition after 72 hrs at 28 degC by serial dilution method; assay type: functional; settings: for MIC: Trichoderma viride, IAM 5061, 72 h
Aspergillus versicolor = experiment: Antifungal activity against Aspergillus versicolor ATCC 11730 assessed as growth inhibition after 72 hrs at 28 degC by serial dilution method; assay type: functional; settings: for MIC: Aspergillus versicolor, ATCC 11730, 72 h
Aspergillus ochraceus = experiment: Antifungal activity against Aspergillus ochraceus ATCC 12066 assessed as growth inhibition after 72 hrs at 28 degC by serial dilution method; assay type: functional; settings: for MIC: Aspergillus ochraceus, ATCC 12066, 72 h
Aspergillus fumigatus = experiment: Antifungal activity against Aspergillus fumigatus ATCC 1022 assessed as growth inhibition after 72 hrs at 28 degC by serial dilution method; assay type: functional; settings: for MIC: Aspergillus fumigatus, ATCC 1022, 72 h
Penicillium ochrochloron = experiment: Antifungal activity against Penicillium ochrochloron ATCC 9112 assessed as growth inhibition after 72 hrs at 28 degC by serial dilution method; assay type: functional; settings: for MIC: Penicillium ochrochloron, ATCC 9112, 72 h
Candida albicans = experiment: Antifungal activity against Candida albicans ATCC 10231 assessed as growth inhibition after 72 hrs at 28 degC by serial dilution method; assay type: functional; settings: for MIC: Candida albicans, ATCC 10231, 72 h
Aspergillus niger = experiment: Antifungal activity against Aspergillus niger ATCC 6275 assessed as growth inhibition after 72 hrs at 28 degC by serial dilution method; assay type: functional; settings: for MIC: Aspergillus niger, ATCC 6275, 72 h
Talaromyces funiculosus = experiment: Antifungal activity against Penicillium funiculosum ATCC 36839 assessed as growth inhibition after 72 hrs at 28 degC by serial dilution method; assay type: functional; settings: for MIC: Talaromyces funiculosus, ATCC 36839, 72 h

Row | MIC (Salmonella typhimurium) [µM] | MIC (Enterobacter cloacae) [µM] | MIC (Staphylococcus aureus) [µM] | MIC (Pseudomonas aeruginosa) [µM] | MIC (Escherichia coli) [µM] | MIC (Listeria monocytogenes) [µM] | MIC (Micrococcus flavus) [µM] | MIC (Bacillus cereus) [µM] | Structure (SMILES) | MBC (Salmonella typhimurium) [µM] | MBC (Enterobacter cloacae) [µM] | MBC (Staphylococcus aureus) [µM] | MBC (Pseudomonas aeruginosa) [µM] | MBC (Escherichia coli) [µM] | MBC (Listeria monocytogenes) [µM] | MBC (Micrococcus flavus) [µM] | MBC (Bacillus cereus) [µM] | MFC99.5 (Trichoderma viride) [×10⁻² umol/ml] | MIC (Trichoderma viride) [µM] | MFC99.5 (Aspergillus versicolor) [×10⁻² umol/ml] | MIC (Aspergillus versicolor) [µM] | also measured
1 | 172 (≈ 100 µg/mL) | 43 (≈ 25 µg/mL) | 172 (≈ 100 µg/mL) | 272 (≈ 158 µg/mL) | 172 (≈ 100 µg/mL) | 258 (≈ 150 µg/mL) | 86 (≈ 50 µg/mL) | 43 (≈ 25 µg/mL) | CN[C@@H]1[C@H](O[C@H]2[C@H](O[C@H]3[C@H](O)[C@@H](O)[C@H](N=C(N)N)[C@@H](O)[C@@H]3N=C(N)N)O[C@@H](C)[C@]2(O)C=O)O[C@@H](CO)[C@H](O)[C@H]1O [STREPTOMYCIN] | 344 (≈ 200 µg/mL) | 86 (≈ 50 µg/mL) | 344 (≈ 200 µg/mL) | 344 (≈ 200 µg/mL) | 344 (≈ 200 µg/mL) | 516 (≈ 300 µg/mL) | 172 (≈ 100 µg/mL) | 86 (≈ 50 µg/mL) | – | – | – | – | –
2 | – | – | – | – | – | – | – | – | CC(=O)N1CCN(c2ccc(OCC3COC(Cn4ccnc4)(c4ccc(Cl)cc4Cl)O3)cc2)CC1 (centres undefined) [KETOCONAZOLE] | – | – | – | – | – | – | – | – | 570 | 4750 (≈ 2520 µg/mL) | 95 | 380 (≈ 202 µg/mL) | MFC99.5 (Aspergillus ochraceus): 95 ×10⁻² umol/ml; MIC (Aspergillus ochraceus): 380 µM (≈ 202 µg/mL); MFC99.5 (Aspergillus fumigatus): 95 ×10⁻² umol/ml; MIC (Aspergillus fumigatus): 380 µM (≈ 202 µg/mL); MFC99.5 (Penicillium ochrochloron): 380 ×10⁻² umol/ml; MIC (Penicillium ochrochloron): 3800 µM (≈ 2020 µg/mL); MFC99.5 (Candida albicans): 95 ×10⁻² umol/ml; MIC (Candida albicans): 380 µM (≈ 202 µg/mL); MFC99.5 (Aspergillus niger): 95 ×10⁻² umol/ml; MIC (Aspergillus niger): 380 µM (≈ 202 µg/mL); MFC99.5 (Talaromyces funiculosus): 95 ×10⁻² umol/ml; MIC (Talaromyces funiculosus): 380 µM (≈ 202 µg/mL)
3 | – | – | – | – | – | – | – | – | c1ccc(-c2ccc(C(c3ccccc3)n3ccnc3)cc2)cc1 (centres undefined) [BIFONAZOLE] | – | – | – | – | – | – | – | – | 80 | 640 (≈ 199 µg/mL) | 64 | 320 (≈ 99.3 µg/mL) | MFC99.5 (Aspergillus ochraceus): 80 ×10⁻² umol/ml; MIC (Aspergillus ochraceus): 480 µM (≈ 149 µg/mL); MFC99.5 (Aspergillus fumigatus): 64 ×10⁻² umol/ml; MIC (Aspergillus fumigatus): 480 µM (≈ 149 µg/mL); MFC99.5 (Penicillium ochrochloron): 64 ×10⁻² umol/ml; MIC (Penicillium ochrochloron): 480 µM (≈ 149 µg/mL); MFC99.5 (Candida albicans): 48 ×10⁻² umol/ml; MIC (Candida albicans): 320 µM (≈ 99.3 µg/mL); MFC99.5 (Aspergillus niger): 64 ×10⁻² umol/ml; MIC (Aspergillus niger): 480 µM (≈ 149 µg/mL); MFC99.5 (Talaromyces funiculosus): 80 ×10⁻² umol/ml; MIC (Talaromyces funiculosus): 640 µM (≈ 199 µg/mL)
4 | 248 (≈ 86.7 µg/mL) | 248 (≈ 86.6 µg/mL) | 248 (≈ 86.7 µg/mL) | 744 (≈ 260 µg/mL) | 372 (≈ 130 µg/mL) | 372 (≈ 130 µg/mL) | 248 (≈ 86.7 µg/mL) | 248 (≈ 86.7 µg/mL) | CC1(C)S[C@@H]2[C@H](NC(=O)[C@H](N)c3ccccc3)C(=O)N2[C@H]1C(=O)O [AMPICILLIN] | 492 (≈ 172 µg/mL) | 372 (≈ 130 µg/mL) | 378 (≈ 132 µg/mL) | 1240 (≈ 433 µg/mL) | 492 (≈ 172 µg/mL) | 744 (≈ 260 µg/mL) | 372 (≈ 130 µg/mL) | 372 (≈ 130 µg/mL) | – | – | – | – | –

Source: ChEMBL document CHEMBL3734713, “4-Thiazolidinone derivatives as potent antimicrobial agents: microwave-assisted synthesis, biological evaluation and docking studies” (2015)
